This is an account of results in US20260166128A1, “HUMAN AMYLIN ANALOG, AND DERIVATIVE THEREOF AND USE THEREOF” (priority 2022, published 2026).

Numbered stars: 1 amine (or outer) side, 2 acyl side, 3 side chain; on linkers, the order of the positions; unused ones are H or OH. Bridge positions count the residues as written; N and C are the ends. Square brackets hold non-standard residues; d marks the D form. Side chains are listed from the residue outwards. Peptide text beside a SMILES is read from it. * marks the point of attachment. C20 diacid = O=C(O)CCCCCCCCCCCCCCCCCCC(=O)*; C18 diacid = O=C(O)CCCCCCCCCCCCCCCCC(=O)*; γGlu = O=C(O)[C@H](CCC(=O)[*:2])N[*:1]; Hyp = O=C(O)[C@@H]1C[C@@H](O)CN1; Cit = NC(=O)NCCC[C@H](N)C(=O)O; Orn = NCCC[C@H](N)C(=O)O; AEEA = NCCOCCOCC(=O)O; Aoc = NCCCCCCCC(=O)O

The assay deals with T1, human amylin receptor (Homo sapiens, UniProt O60896+P30988).
T1 construct: host or cells: CHO-K1/Ga15/AMY3 cells, further stably transfected with a CRE-luciferase plasmid
T1 sequence (P30988 25-474): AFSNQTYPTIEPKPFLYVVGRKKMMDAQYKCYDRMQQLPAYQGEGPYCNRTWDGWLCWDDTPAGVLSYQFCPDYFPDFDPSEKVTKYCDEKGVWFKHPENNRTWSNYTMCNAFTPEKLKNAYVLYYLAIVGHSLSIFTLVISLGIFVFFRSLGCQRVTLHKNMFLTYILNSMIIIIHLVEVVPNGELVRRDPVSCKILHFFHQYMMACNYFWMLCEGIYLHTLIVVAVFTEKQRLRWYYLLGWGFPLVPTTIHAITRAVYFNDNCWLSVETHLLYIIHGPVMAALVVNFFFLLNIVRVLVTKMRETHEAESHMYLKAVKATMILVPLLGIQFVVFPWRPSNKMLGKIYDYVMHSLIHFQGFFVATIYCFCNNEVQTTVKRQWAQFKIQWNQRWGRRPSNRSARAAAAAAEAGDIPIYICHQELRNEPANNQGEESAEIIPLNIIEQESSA
T1 sequence (O60896 24-148 partner): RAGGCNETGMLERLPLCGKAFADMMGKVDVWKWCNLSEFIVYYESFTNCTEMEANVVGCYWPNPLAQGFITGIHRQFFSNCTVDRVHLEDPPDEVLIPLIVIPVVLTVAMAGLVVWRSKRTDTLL
The assay can be described thus: Luciferase assay of amylin derivatives in amylin receptor/CRE-luc CHO cell line. The class given is cell-based. The conditions noted are these: CHO-K1/Ga15/AMY3 CRE-luc cells, 24 hours incubation, F12 medium containing 10% FBS; read-out: EC50.
Procedure: The experiment was intended to detect the activity or efficacy of the amylin derivatives on a human amylin receptor in vitro by luciferase assay.
50 μL of growth medium (F12 medium containing 10% FBS) was added into each well of a white 96-well plate, and the stably transfected amylin/CRE-lue CHO cells were inoculated into the white 96-well plate at a density of about 20,000 cells/well for activity determination.
For `CC[C@H](C)[C@H](NC(=O)[C@H](CCCCNC(=O)CC[C@H](NC(=O)CCCCCCCCCCCCCCCCCCC(=O)O)C(=O)O)NC(=O)CNC(=O)[C@H](CC(C)C)NC(=O)[C@H](CC(N)=O)NC(=O)[C@H](CC(N)=O)NC(=O)[C@H](CO)NC(=O)[C@H](CO)NC(=O)[C@H](Cc1c[nH]cn1)NC(=O)[C@H](CCCNC(=N)N)NC(=O)[C@H](CC(C)C)NC(=O)[C@H](Cc1ccccc1)NC(=O)[C@H](CC(=O)O)NC(=O)[C@H](C)NC(=O)[C@H](CC(C)C)NC(=O)[C@H](CCCNC(=N)N)NC(=O)[C@H](CCC(N)=O)NC(=O)[C@@H](NC(=O)[C@H](C)NC(=O)[C@@H]1CSSC[C@H](NC(=O)[C@@H](N)CCCNC(=N)N)C(=O)N[C@@H](CC(N)=O)C(=O)N[C@@H]([C@@H](C)O)C(=O)N[C@@H](C)C(=O)N[C@@H]([C@@H](C)O)C(=O)N1)[C@@H](C)O)C(=O)N[C@@H](CC(C)C)C(=O)N1CCC[C@H]1C(=O)N1CCC[C@H]1C(=O)N[C@H](C(=O)N[C@@H](CC(N)=O)C(=O)N[C@H](C(=O)NCC(=O)N[C@@H](CO)C(=O)N[C@@H](CC(N)=O)C(=O)N[C@H](C(=O)N1C[C@H](O)C[C@H]1C(N)=O)[C@@H](C)O)C(C)C)[C@@H](C)O` [PD102] (H-RCNTATCATQRLADFLRHSSNNLGK([γGlu-C20 diacid])ILPPTNVGSNT[Hyp]-NH2; disulfide 2-7), the EC50 worked out at 33 pM. To `CC[C@H](C)[C@H](NC(=O)[C@@H]1CCCN1C(=O)[C@H](CC(=O)O)NC(=O)[C@H](CC(C)C)NC(=O)[C@H](CC(N)=O)NC(=O)[C@H](CC(N)=O)NC(=O)[C@H](CO)NC(=O)[C@H](CO)NC(=O)[C@H](Cc1c[nH]cn1)NC(=O)[C@H](CCCNC(=N)N)NC(=O)[C@H](CC(C)C)NC(=O)[C@H](Cc1ccccc1)NC(=O)[C@H](CC(=O)O)NC(=O)[C@H](C)NC(=O)[C@H](CC(C)C)NC(=O)[C@H](CCCNC(=N)N)NC(=O)[C@H](CCC(N)=O)NC(=O)[C@@H](NC(=O)[C@H](C)NC(=O)[C@@H]1CSSC[C@H](NC(=O)[C@H](CCCCN)NC(=O)CC[C@H](NC(=O)CCCCCCCCCCCCCCCCCCC(=O)O)C(=O)O)C(=O)N[C@@H](CC(N)=O)C(=O)N[C@@H]([C@@H](C)O)C(=O)N[C@@H](C)C(=O)N[C@@H]([C@@H](C)O)C(=O)N1)[C@@H](C)O)C(=O)N[C@@H](CC(C)C)C(=O)N1CCC[C@H]1C(=O)N1CCC[C@H]1C(=O)N[C@H](C(=O)N[C@@H](CC(N)=O)C(=O)N[C@H](C(=O)NCC(=O)N[C@@H](CO)C(=O)N[C@@H](CC(N)=O)C(=O)N[C@H](C(=O)N1CCC[C@H]1C(N)=O)[C@@H](C)O)C(C)C)[C@@H](C)O` [PD164] ({C20 diacid-γGlu}-KCNTATCATQRLADFLRHSSNNLDPILPPTNVGSNTP-NH2; disulfide 2-7 (inferred)) belongs 111 pM; to `CC[C@H](C)[C@H](NC(=O)[C@@H]1CCCN1C(=O)[C@H](CCCNC(N)=O)NC(=O)[C@H](CC(C)C)NC(=O)[C@H](CC(N)=O)NC(=O)[C@H](CC(N)=O)NC(=O)[C@H](CO)NC(=O)[C@H](CO)NC(=O)[C@H](Cc1c[nH]cn1)NC(=O)[C@H](CCCNC(=N)N)NC(=O)[C@H](CC(C)C)NC(=O)[C@H](Cc1ccccc1)NC(=O)[C@H](CC(=O)O)NC(=O)[C@H](C)NC(=O)[C@H](CC(C)C)NC(=O)[C@H](CCCNC(=N)N)NC(=O)[C@H](CCC(N)=O)NC(=O)[C@@H](NC(=O)[C@H](C)NC(=O)[C@@H]1CSSC[C@H](NC(=O)[C@H](CCCCN)NC(=O)CC[C@H](NC(=O)CCCCCCCCCCCCCCCCCCC(=O)O)C(=O)O)C(=O)N[C@@H](CC(N)=O)C(=O)N[C@@H]([C@@H](C)O)C(=O)N[C@@H](C)C(=O)N[C@@H]([C@@H](C)O)C(=O)N1)[C@@H](C)O)C(=O)N[C@@H](CC(C)C)C(=O)N1CCC[C@H]1C(=O)N1CCC[C@H]1C(=O)N[C@H](C(=O)N[C@@H](CC(N)=O)C(=O)N[C@H](C(=O)NCC(=O)N[C@@H](CO)C(=O)N[C@@H](CC(N)=O)C(=O)N[C@H](C(=O)N1CCC[C@H]1C(N)=O)[C@@H](C)O)C(C)C)[C@@H](C)O` [PD171] ({C20 diacid-γGlu}-KCNTATCATQRLADFLRHSSNNL[Cit]PILPPTNVGSNTP-NH2; disulfide 2-7 (inferred)), 53 pM. The figure for `CC[C@H](C)[C@H](NC(=O)[C@@H]1CCCN1C(=O)CCCCCCCNC(=O)[C@H](CC(C)C)NC(=O)[C@H](CC(N)=O)NC(=O)[C@H](CC(N)=O)NC(=O)[C@H](CO)NC(=O)[C@H](CO)NC(=O)[C@H](Cc1c[nH]cn1)NC(=O)[C@H](CCCNC(=N)N)NC(=O)[C@H](CC(C)C)NC(=O)[C@H](Cc1ccccc1)NC(=O)[C@H](CC(=O)O)NC(=O)[C@H](C)NC(=O)[C@H](CC(C)C)NC(=O)[C@H](CCCNC(=N)N)NC(=O)[C@H](CCC(N)=O)NC(=O)[C@@H](NC(=O)[C@H](C)NC(=O)[C@@H]1CSSC[C@H](NC(=O)[C@H](CCCCN)NC(=O)CC[C@H](NC(=O)CCCCCCCCCCCCCCCCCCC(=O)O)C(=O)O)C(=O)N[C@@H](CC(N)=O)C(=O)N[C@@H]([C@@H](C)O)C(=O)N[C@@H](C)C(=O)N[C@@H]([C@@H](C)O)C(=O)N1)[C@@H](C)O)C(=O)N[C@@H](CC(C)C)C(=O)N1CCC[C@H]1C(=O)N1CCC[C@H]1C(=O)N[C@H](C(=O)N[C@@H](CC(N)=O)C(=O)N[C@H](C(=O)NCC(=O)N[C@@H](CO)C(=O)N[C@@H](CC(N)=O)C(=O)N[C@H](C(=O)N1CCC[C@H]1C(N)=O)[C@@H](C)O)C(C)C)[C@@H](C)O` [PD174] ({C20 diacid-γGlu}-KCNTATCATQRLADFLRHSSNNL[Aoc]PILPPTNVGSNTP-NH2; disulfide 2-7) is 46 pM. `CC[C@H](C)[C@H](NC(=O)[C@@H]1CCCN1C(=O)[C@H](CCCCN)NC(=O)[C@H](CC(C)C)NC(=O)[C@H](CC(N)=O)NC(=O)[C@H](CC(N)=O)NC(=O)[C@H](CO)NC(=O)[C@H](CO)NC(=O)[C@H](Cc1c[nH]cn1)NC(=O)[C@H](CCCNC(=N)N)NC(=O)[C@H](CC(C)C)NC(=O)[C@H](Cc1ccccc1)NC(=O)[C@H](CC(=O)O)NC(=O)[C@H](C)NC(=O)[C@H](CC(C)C)NC(=O)[C@H](CCCNC(=N)N)NC(=O)[C@H](CCC(N)=O)NC(=O)[C@@H](NC(=O)[C@H](C)NC(=O)[C@@H]1CSSC[C@H](NC(=O)[C@H](CCCCN)NC(=O)[C@H](CC(=O)O)NC(=O)COCCOCCNC(=O)COCCOCCNC(=O)CCCCCCCCCCCCCCCCCCC(=O)O)C(=O)N[C@@H](CC(N)=O)C(=O)N[C@@H]([C@@H](C)O)C(=O)N[C@@H](C)C(=O)N[C@@H]([C@@H](C)O)C(=O)N1)[C@@H](C)O)C(=O)N[C@@H](CC(C)C)C(=O)N1CCC[C@H]1C(=O)N1CCC[C@H]1C(=O)N[C@H](C(=O)N[C@@H](CC(N)=O)C(=O)N[C@H](C(=O)NCC(=O)N[C@@H](CO)C(=O)N[C@@H](CC(N)=O)C(=O)N[C@H](C(=O)N1C[C@H](O)C[C@H]1C(N)=O)[C@@H](C)O)C(C)C)[C@@H](C)O` [PD182] ({C20 diacid-AEEA-AEEA}-DKCNTATCATQRLADFLRHSSNNLKPILPPTNVGSNT[Hyp]-NH2; disulfide 3-8): the EC50 came to 34 pM.

As for `CC[C@H](C)[C@H](NC(=O)[C@@H]1CCCN1C(=O)[C@H](CCCCNC(=O)CC[C@H](NC(=O)CCCCCCCCCCCCCCCCCCC(=O)O)C(=O)O)NC(=O)[C@H](CC(C)C)NC(=O)[C@H](CC(N)=O)NC(=O)[C@H](CC(N)=O)NC(=O)[C@H](CO)NC(=O)[C@H](CO)NC(=O)[C@H](Cc1c[nH]cn1)NC(=O)[C@H](CCCNC(=N)N)NC(=O)[C@H](CC(C)C)NC(=O)[C@H](Cc1ccccc1)NC(=O)[C@H](CC(=O)O)NC(=O)[C@H](C)NC(=O)[C@H](CC(C)C)NC(=O)[C@H](CCCNC(=N)N)NC(=O)[C@H](CCC(N)=O)NC(=O)[C@@H](NC(=O)[C@H](C)NC(=O)[C@@H]1CSSC[C@H](NC(=O)[C@@H](N)CCCN)C(=O)N[C@@H](CC(N)=O)C(=O)N[C@@H]([C@@H](C)O)C(=O)N[C@@H](C)C(=O)N[C@@H]([C@@H](C)O)C(=O)N1)[C@@H](C)O)C(=O)N[C@@H](CC(C)C)C(=O)N1CCC[C@H]1C(=O)N1CCC[C@H]1C(=O)N[C@H](C(=O)N[C@@H](CC(N)=O)C(=O)N[C@H](C(=O)NCC(=O)N[C@@H](CO)C(=O)N[C@@H](CC(N)=O)C(=O)N[C@H](C(=O)N1C[C@H](O)C[C@H]1C(N)=O)[C@@H](C)O)C(C)C)[C@@H](C)O` [PD075] (H-[Orn]CNTATCATQRLADFLRHSSNNLK([γGlu-C20 diacid])PILPPTNVGSNT[Hyp]-NH2; disulfide 2-7), the EC50 amounted to 48 pM. To `CC[C@H](C)[C@H](NC(=O)[C@@H]1CCCN1C(=O)[C@H](CCCCNC(=O)CC[C@H](NC(=O)CCCCCCCCCCCCCCCCC(=O)O)C(=O)O)NC(=O)[C@H](CC(C)C)NC(=O)[C@H](CC(N)=O)NC(=O)[C@H](CC(N)=O)NC(=O)[C@H](CO)NC(=O)[C@H](CO)NC(=O)[C@H](Cc1c[nH]cn1)NC(=O)[C@H](CCCNC(=N)N)NC(=O)[C@H](CC(C)C)NC(=O)[C@H](Cc1ccccc1)NC(=O)[C@H](CC(=O)O)NC(=O)[C@H](C)NC(=O)[C@H](CC(C)C)NC(=O)[C@H](CCCNC(=N)N)NC(=O)[C@H](CCC(N)=O)NC(=O)[C@@H](NC(=O)[C@H](C)NC(=O)[C@@H]1CSSC[C@H](NC(=O)[C@@H](N)CCCNC(=N)N)C(=O)N[C@@H](CC(N)=O)C(=O)N[C@@H]([C@@H](C)O)C(=O)N[C@@H](C)C(=O)N[C@@H]([C@@H](C)O)C(=O)N1)[C@@H](C)O)C(=O)N[C@@H](CC(C)C)C(=O)N1CCC[C@H]1C(=O)N1CCC[C@H]1C(=O)N[C@H](C(=O)N[C@@H](CC(N)=O)C(=O)N[C@H](C(=O)NCC(=O)N[C@@H](CO)C(=O)N[C@@H](CC(N)=O)C(=O)N[C@H](C(=O)N1C[C@H](O)C[C@H]1C(N)=O)[C@@H](C)O)C(C)C)[C@@H](C)O` [PD107] (H-RCNTATCATQRLADFLRHSSNNLK([γGlu-C18 diacid])PILPPTNVGSNT[Hyp]-NH2; disulfide 2-7) belongs 27 pM.

The EC50 is the concentration needed to bring the measured effect to its halfway point.
